{"source": "patent US20220202739A1", "about": "“ENDOCANNABINOID MIMETIC AND ANTI-INFLAMMATORY COMPOUND CONTAINING COMPOSITIONS, METHODS OF PREPARATION AND USES THEREOF” (priority 2019, published 2022)", "system": "PPARG", "assay": "Gene expression custom microarray, human skin fibroblasts (Example 1): PPARG", "format": "cell-based", "conditions": "for fold induction at 10 µM: Skin fibroblast, read-out: PPARG↑ gene expression, fold increase or decrease vs untreated cells", "description": "Cell cultures: A human skin fibroblast cell culture (or cultures) was obtained through the Coriell Cell Repository from the National Institute on Aging Cell Repository (Camden, N.J.), or Promocell GmbH (Heidelberg, Germany). The initial culture was selected from the following cell lines: AG13066, AG11557, AG11796 or GM03651E. The cell lines were derived from donors as follows:\nExperimental phase: When the appropriate quantity of cells had been grown, they were detached as described above, but at the final step were seeded into each well of one or more 6 well dishes. Each well received 2 ml of the cell suspension so they were seeded equally. The dishes were returned to the incubator until 85-95% confluency was reached.\nIt is at this stage that all wells were rinsed in PBS after aspirating the growth media. The compound(s) to be tested were previously mixed into a suitable solvent (e.g., DMSO or ethanol) that can be diluted to the desired concentration of test compound (10 μl) in the culture wells without exceeding maximum solvent concentrations and adversely effecting cell viability, and mixed with basal media. NOTE: Standard maximum levels of solvent are 0.1% for DMSO and 0.5% for ETOH.\nEvery 2 wells on the 6 well plate served as a biological replicate for the purposes of RNA isolation and genetic expression evaluations making each 6 well dish an n=3 for the test compound(s) contained in the media. Negative control plates (no test compound(s) and only basal media) were also generated. The plates were returned to the incubator for 24 hrs.\nAt the end of the 24 hr time period, the plates were removed from the incubator, the test media aspirated, and the cells rinsed with PBS. RNA isolation is performed using the BioRad Aurum Total RNA Mini Kit (Hercules, Calif.) per manufacturer's protocol; which is described, in brief, below: • Add 350 μl of lysis buffer to each well. Pipet multiple times to ensure thorough lysis. Add lysed cells to the collection tube. • Add 350 μl of 70% ETOH to the collection tube and mix thoroughly. • Pipet the generated lysate onto the spin column placed in a new 2 ml tube. Centrifuge for 30 sec between 8,000 and 10,000 g. • Place the spin column containing the now bound RNA, in a new 2 ml tube. Add 700 μl of low stringency wash solution to the spin column. Centrifuge for 30 sec between 8,000 and 10,000 g. Discard the flow through and replace spin column. • Add 80 μl of DNase I dilution to the spin column and incubate at room temperature for 15 minutes. • Add 700 μl of high stringency wash solution to the column and centrifuge for 30 sec between 8,000 and 10,000 g. Discard flow through. • Add 700 μl of low stringency wash solution to the column and centrifuge for 60 sec between 8,000 and 10,000 g. Discard flow through. • Centrifuge for 2 minutes to remove residual wash solution. • Transfer spin column to new 1.5 ml collection tube and add 80 μl of elution solution to the column. Allow 1 minute for saturation of the membrane and then centrifuge for 2 minutes to complete the RNA elution. • Quantify the quantity of RNA and store at −20 C° until use (no more than 1 month)\nThe genes tested were: • Cannabinoid receptor 1 (CB1(CNR1)) • Cannabinoid receptor 2 (CB2 (CNR2)) • Fatty acid amide hydrolase (FAAH) • Monoacylglycerol lipase (MGLL, i.e., MAGL) • Peroxisome proliferator-activated receptor gamma (PPARG) • Nuclear factor kappa-light-chain-enhancer of activated B cells (NFκβ) • Interleukin 1 Alpha (IL1alpha) • Cyclooxygenase 1 (PTGS1, i.e., COX1) • Transient receptor potential cation channel subfamily A member 1 (TRPA1) • Transient receptor potential cation channel subfamily V member 1 (TRPV1) • Transient receptor potential cation channel subfamily M member 8 (TRPM8) • Hemoglobin Subunit Beta (HBB) REFERENCE GENE • Ribosomal Protein L13a (RPL13A) REFERENCE GENE", "key": {"[1]": {"conditions": "human skin fibroblasts, 10 uM, 24 hr"}}, "note": "Where two headings read alike, the source gives them in different places."}
{"molecule": "CC(C)[C@]12O[C@H]1[C@@H]1O[C@]13[C@]1(O[C@H]1C[C@H]1C4=C(CC[C@@]13C)C(=O)OC4)[C@@H]2O", "note": "[Triptolide]", "values": [{"measurement": "fold induction at 10 µM", "setting": "[1]", "value": 1.1}]}
{"molecule": "CCCCCCCCCCCCCCCC(=O)NCCO", "note": "[N-palmitoylethanolamide]", "values": [{"measurement": "PPARG↑ gene expression, fold increase or decrease vs untreated cells", "setting": "[1]", "value": 2.6, "unit": "fold"}]}
{"molecule": "C=C(C)[C@@H]1CCC(C)=C[C@H]1c1c(O)cc(CCCCC)cc1O", "note": "[CBD, cannabidiol, reference compound]", "values": [{"measurement": "fold induction at 10 µM", "setting": "Homo sapiens, 24 h", "value": 8.1}]}
